# From patent US20250026747A1, “COLIBACTIN DERIVATIVES AND METHODS OF TREATING, AMELIORATING, AND/OR PREVENTING CANCER” (priority 2021, published 2025)
# Test system: linearized pUC19 DNA
# Experiment: DNA cross-linking assay with linearized pUC19 DNA, denaturing agarose gel electrophoresis
# Assay type: biochemical
# Conditions: for DNA interstrand cross-link (ICL) formation: linearized pUC19 DNA
# Description: FIGS. 6A-6C depict the DNA crosslinking ability of several compounds according to some embodiments. The DNA cross-linking assays employ linear pUC19 DNA. DMSO was used as vehicle (negative control), and 100 μM cisplatin was used as positive controls. The DNA was analyzed by 0.4% NaOH denaturing and agarose gel electrophoresis (90 V, 1.5 h). FIG. 6A depicts the DNA cross-linking comparison of colibactin 770 (3a), stable colibactin 742 (4), and its linear precursor 9 at pH 5.0. FIG. 6B depicts the comparison of the relative DNA cross-linking abilities of colibactin 742 (4) and its linear precursor 9 at pH 5.0. FIG. 6C depicts the comparison of the relative DNA cross-linking abilities of colibactin 742 (4) and its linear precursor 9 at pH 7.0.
# FIG. 10 depicts the DNA cross-linking assay employing linear pUC19 DNA and synthetic colibactin (3), 9, and colibactin 742 (4) according to some embodiments. Specifically, 5% DMSO was used as vehicle (negative control), and 100 μM cisplatin was used as positive control. DNA ladder (Lane #1); 5% DMSO (Lane #2); 100 μM cisplatin (Lane #3); 200 μM colibactin (3) (Lane #4); 100 μM colibactin (3) (Lane #5); 10 μM colibactin (3) (Lane #6); 1 μM colibactin (3) (Lane #7); 200 μM 9 (Lane #8); 100 μM 9 (Lane #9); 10 μM 9 (Lane #10); 1 μM 9 (Lane #11); 200 μM colibactin 742 (4) (Lane #12); 100 μM colibactin 742 (4) (Lane #13); 10 μM colibactin 742 (4) (Lane #14); 1 μM colibactin 742 (4) (Lane #15). Conditions (Lane #3): linearized pUC19 DNA (15.4 μM in base pairs), 5% DMSO (vehicle), 100 μM cisplatin, 10 mM citric buffer, pH 5.0, 4 h, 37° C. Conditions (Lanes #4-#7): linearized pUC19 DNA (15.4 μM in base pairs), colibactin (3) (200 μM-1 μM), 5% DMSO, 10 mM citric buffer, pH 5.0, 4 h, 37° C. Conditions (Lanes #8-#11): linearized pUC19 DNA (15.4 μM in base pairs), 9 (200 μM-1 μM), 5% DMSO, 10 mM citric buffer, pH 5.0, 4 h, 37° C. Conditions (Lanes #12-#15): linearized pUC19 DNA (15.4 μM in base pairs), colibactin 742 (4) (200 μM-1 μM), 5% DMSO, 10 mM citric buffer, pH 5.0, 4 h, 37° C. The DNA was analyzed by native, 0.2% NaOH, 0.4% NaOH, and 1% NaOH denaturing agarose gel electrophoresis (90 V, 1.5 h). Linear=linearized DNA in native form, linear-denat.=linearized DNA in denaturing form, linear-XL=linerized DNA cross-linked by colibactins or cisplatin.
# FIG. 11 depicts the DNA cross-linking assay employing linear pUC19 DNA and synthetic colibactin fragments 23, 24, and 22. Specifically, 5% DMSO was used as vehicle (negative control), and 100 μM cisplatin was used as positive control. DNA ladder (Lane #1); 5% DMSO (Lane #2); 100 μM cisplatin (Lane #3); 500 μM 23 (Lane #4); 100 μM 23 (Lane #5); 10 μM 23 (Lane #6); 1 μM 23 (Lane #7); 100 nm 23 (Lane #8); 500 μM 24 (Lane #9); 100 μM 24 (Lane #10); 10 μM 24 (Lane #11); 1 μM 24 (Lane #12); 100 nm 24 (Lane #13); 500 μM 22 (Lane #14); 100 μM 22 (Lane #15); 10 μM 22 (Lane #16); 1 μM 22 (Lane #17); 100 nm 22 (Lane #18). Conditions (Lane #2): linearized pUC19 DNA (15.4 μM in base pairs), 5% DMSO (vehicle), 10 mM citric buffer, pH 5.0, 4 h, 37° C. Conditions (Lane #3): linearized pUC19 DNA (15.4 μM in base pairs), 5% DMSO (vehicle), 100 μM cisplatin, 10 mM citric buffer, pH 5.0, 4 h, 37° C. Conditions (Lanes #4-#8): linearized pUC19 DNA (15.4 μM in base pairs), 23 (500 μM-100 nM), 5% DMSO, 10 mM citric buffer, pH 5.0, 4 h, 37° C. Conditions (Lanes #9-#13): linearized pUC19 DNA (15.4 μM in base pairs), 24 (500 μM-1 μM), 5% DMSO, 10 mM citric buffer, pH 5.0, 4 h, 37° C. Conditions (Lanes #14-#18): linearized pUC19 DNA (15.4 μM in base pairs), 22 (500 μM-100 nM), 5% DMSO, 10 mM citric buffer, pH 5.0, 4 h, 37° C. The DNA was analyzed by native, 0.2% NaOH, 0.4% NaOH, and 1% NaOH denaturing agarose gel electrophoresis (90 V, 1.5 h). Linear=linearized DNA in native form, linear-denat.=linearized DNA in denaturing form, linear-XL=DSB/linerized DNA cross-linked by colibactins or cisplatin. […]
SMILES,"DNA interstrand cross-link (ICL) formation (pH 5.0, 4 h, 37° C.)","DNA interstrand cross-link (ICL) formation (pH 7.0, 1 nM-100 μM)",concentration inducing stable DNA ICLs relative to 3a (pH 5.0),"stability of the ICLs under increasingly stringent denaturing conditions (pH 5.0, native, 0.2%, 0.4%, 1% NaOH gels)",DNA alkylation
C[C@H]1CCC(CC(=O)NC2(C(=O)CC(=O)NCC(=O)c3csc(CCc4csc(CNC(=O)CC(=O)C5(NC(=O)CC6=N[C@@H](C)CC6)CC5)n4)n3)CC2)=N1 [compound 9],induced stable DNA ICLs,induced stable ICLs,ten-fold lower,comparable to those derived from 3a,
C[C@H]1CCC(C2=C(CC(=O)NCC(=O)c3csc(CCc4csc(CNC(=O)CC5=C(C6=N[C@@H](C)CC6)C(=O)NC5(C)C)n4)n3)C(C)(C)NC2=O)=N1 [compound 22],failed to form DNA ICLs,,,,lack of DNA alkylation
"CCOC(=O)c1csc(CNC(=O)CC2=C(C3=N[C@@H](C)CC3)C(=O)NC23CC3)n1 [compound 23, reference compound]",failed to form DNA ICLs,,,,
CCOC(=O)c1nc(C2(O)CNC(=O)C2C2=C(C3=N[C@@H](C)CC3)C(=O)NC23CC3)cs1 (some centres unmarked) [compound 24],failed to form DNA ICLs,,,,
